Source: PubChem BioAssay (NCI)
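Tested at 5 concentrations; 48 h exposure; 96-well plates; endpoints linearly interpolated, else capped at highest concentration. GI50: concentration for 50% inhibition of growth. TGI marks complete inhibition of growth.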

How the values were obtained:
Test in all cases: NCI-60 cell line screen, 48 h
HCT-116 colon = tested on: HCT-116 colon
HCC-2998 colon = tested on: HCC-2998 colon
OVCAR-4 ovarian = tested on: OVCAR-4 ovarian
HT29 colon = tested on: HT29 colon
SF-295 CNS = tested on: SF-295 CNS
SNB-19 CNS = tested on: SNB-19 CNS
HCT-15 colon = tested on: HCT-15 colon
HS 578T breast = tested on: HS 578T breast
LOX IMVI melanoma = tested on: LOX IMVI melanoma

SMILES	TGI (HCT-116 colon)	TGI (HCC-2998 colon)	TGI (OVCAR-4 ovarian)	TGI (HT29 colon)	TGI (SF-295 CNS)	TGI (SNB-19 CNS)	TGI (HCT-15 colon)	GI50 (HCT-116 colon)	GI50 (HCC-2998 colon)	GI50 (OVCAR-4 ovarian)	GI50 (HS 578T breast)	TGI (HS 578T breast)	GI50 (LOX IMVI melanoma)	TGI (LOX IMVI melanoma)	GI50 (SF-295 CNS)	GI50 (SNB-19 CNS)	GI50 (HCT-15 colon)	GI50 (HT29 colon)
CCOc1ccc(NC(=O)CC2Sc3ccccc3NC2=O)cc1 (configuration not stated)	76.2 µM	> 100 µM	39.8 µM	> 100 µM	> 100 µM	> 100 µM	> 100 µM											
O=C1/C(=C/c2ccc(F)cc2)CCOc2ccc([N+](=O)[O-])cc21	3.01 µM	4.75 µM	36.5 µM		9.23 µM	16.2 µM	> 100 µM	1.5 µM	2.04 µM	16.7 µM	4.94 µM	47.1 µM	35.9 µM	> 100 µM	3.08 µM	4.26 µM	41.6 µM	
CCOC(=O)C1(CC)CCCCC(=O)N1 (configuration not stated)		> 100 µM	> 100 µM	> 100 µM	> 100 µM		> 100 µM							> 100 µM				
Nc1n[nH]c2ccc([C@@H]3Nc4ccc5[nH]ncc5c4[C@H]4[C@H]5CCC(C5)[C@H]43)cc12	> 100 µM	11.6 µM	> 100 µM	> 36.8 µM	3.47 µM	> 100 µM	> 100 µM	0.404 µM	0.381 µM	2.05 µM	0.31 µM	12.7 µM	0.7 µM	14.5 µM	0.302 µM	0.515 µM	0.407 µM	0.35 µM
O=C1NC2(CCCC2)C(=O)C12CCCC2	> 100 µM		> 100 µM	> 100 µM	> 100 µM	> 100 µM	> 100 µM							> 100 µM				
C#CCNC(=O)NC(CCCNC(=O)OCc1ccccc1)C(=O)OCc1ccccc1 (configuration not stated)	> 100 µM	> 100 µM	> 100 µM	> 100 µM	> 100 µM	> 100 µM	> 100 µM							> 100 µM				
Cc1ccccc1C(C#N)C(=O)C(=O)Nc1nc([N+](=O)[O-])cs1 (configuration not stated)	> 100 µM	> 100 µM	> 100 µM	> 100 µM		> 100 µM	> 100 µM							> 100 µM				
CC(=O)[CH-]C(=O)c1ccccc1.CC(=O)[CH-]C(=O)c1ccccc1.CCCCCCCCCCCCCCCCCC(=O)[O-].CCCCCCCCCCCCCCCCCC(=O)[O-].[Ti+4]	36.5 µM		31.8 µM	44.9 µM	34.3 µM	33.6 µM	69.6 µM	18.3 µM		16.6 µM			18 µM	35.9 µM	19.5 µM	17.5 µM	32.9 µM	20.8 µM
O=C(Nc1cccc(-n2ccc3c(NC(=O)c4ccccc4)nccc32)c1)c1cccc(C(F)(F)F)c1	1.46 µM	> 66.3 µM	> 67.7 µM	0.388 µM	0.468 µM	> 100 µM		0.0364 µM	0.0362 µM	0.104 µM	0.0305 µM	3.28 µM	0.0838 µM	2.78 µM	0.0278 µM	0.0453 µM	0.0357 µM	0.0332 µM
C1COCCN1.C1COCCN1.N.N.[Cl-].[Pt+2]	> 100 µM	> 100 µM	> 100 µM		> 100 µM	> 100 µM	> 100 µM	> 100 µM	> 100 µM	> 100 µM			> 100 µM	> 100 µM	> 100 µM	> 100 µM	> 100 µM	
O=[N+]([O-])[C@@H]1C2C=CC(C2)[C@H]1Cl (some centres not stated)	> 100 µM		> 100 µM	> 100 µM	> 100 µM	> 100 µM	> 100 µM							> 100 µM				
C=CC1=CSNN1	> 100 µM	> 100 µM	> 100 µM	> 100 µM	> 100 µM	> 100 µM	> 100 µM							> 100 µM				
CC(=O)OC1=C2CC3(C)OC(=O)CC(C)(C)C3=CC=C2C=C(C(C)C)C1=O (configuration not stated)	1.35 µM	2.15 µM	0.915 µM	2.73 µM	3.14 µM	3.28 µM	0.392 µM							0.425 µM				
C=CCSC[C@H](NC(=O)COc1ccccc1)C(=O)NC(C(=O)OCc1ccc([N+](=O)[O-])cc1)=C(C)C	> 100 µM	> 100 µM	> 100 µM	> 100 µM	> 100 µM		> 100 µM							> 100 µM				
CCOC(=O)CC1=Nc2ccccc2SC1	> 100 µM	> 100 µM	> 100 µM	> 100 µM	> 100 µM	> 100 µM	> 100 µM							> 100 µM				
